Measured values taken from PubChem BioAssay AID330 (DTP/NCI, 2004).
“And” between values parts separate entries of the source, which are not always exact repeats. Identical values can stand only once. Inconclusive results and toxic doses are left out. Rule for the calls: active = survival T/C of 150% or more; inactive = T/C below 125% in these data.

Tested on: P388 leukemia ip, CD2F1 mice, survival T/C
Assay: NCI In Vivo Anticancer Drug Screen. Data for tumor model P388 Leukemia (intraperitoneal) in CD2F1 (CDF1) mice
Conditions: endpoint: median survival time, higher = longer survival
Summary of the method: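 Mice carrying the transplanted tumor received test compound or vehicle. Survival was recorded in each group, and the value is the treated-group measurement divided by that of the vehicle-treated control group.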

[1] = dose: 50.0 mg/kg/injection, schedule: Q01DX009 (ip), vehicle: Klucel (hydroxypropylcellulose) (HPC)
[2] = dose: 100.0 mg/kg/injection, schedule: Q01DX009 (ip), vehicle: Klucel (hydroxypropylcellulose) (HPC)

Measured: T/C

CN(C)P1(=O)NCC(C)(C)CO1 (stereo not given)
inactive: dose: 50.0 mg/kg/injection, schedule: Q01DX005 (ip), vehicle: saline 104 % of control | dose: 100.0 mg/kg/injection, schedule: Q01DX005 (ip), vehicle: saline 96 % of control | dose: 200.0 mg/kg/injection, schedule: Q01DX005 (ip), vehicle: saline 96 % of control

O=C1C(CCl)(CCl)CCC12CN=C(Cl)C2 (stereo not given)
inactive: dose: 50.0 mg/kg/injection, schedule: Q01DX005 (ip), vehicle: saline with Tween-80 100 % of control | dose: 100.0 mg/kg/injection, schedule: Q01DX005 (ip), vehicle: saline with Tween-80 100 % of control | dose: 200.0 mg/kg/injection, schedule: Q01DX005 (ip), vehicle: saline with Tween-80 106 % of control

CN(C)c1ccc(-c2nnc3c(c(=O)n(C)c(=O)n3C)[n+]2[O-])cc1
inactive: dose: 25.0 mg/kg/injection, schedule: Q01DX001 (ip), vehicle: Klucel (hydroxypropylcellulose) (HPC) 102 % of control | dose: 50.0 mg/kg/injection, schedule: Q01DX001 (ip), vehicle: Klucel (hydroxypropylcellulose) (HPC) 93 % of control | dose: 100.0 mg/kg/injection, schedule: Q01DX001 (ip), vehicle: Klucel (hydroxypropylcellulose) (HPC) 100 % of control and 94 % of control

COc1cccc(C)c1C1CC2CCCN2O1 (stereo not given)
inactive: [1] 105 % of control | [2] 106 % of control | dose: 200.0 mg/kg/injection, schedule: Q01DX009 (ip), vehicle: Klucel (hydroxypropylcellulose) (HPC) 89 % of control

O=C(CCl)Nc1nc(=O)[nH]s1
inactive: [1] 107 % of control | [2] 107 % of control

O=C1C=CC(=O)C(Sc2cccc3ccccc23)=C1
inactive: dose: 6.25 mg/kg/injection, schedule: Q01DX005 (ip), vehicle: Klucel (hydroxypropylcellulose) (HPC) 96 % of control | dose: 12.5 mg/kg/injection, schedule: Q01DX005 (ip), vehicle: Klucel (hydroxypropylcellulose) (HPC) 102 % of control and 97 % of control | dose: 25.0 mg/kg/injection, schedule: Q01DX005 (ip), vehicle: Klucel (hydroxypropylcellulose) (HPC) 93 % of control | dose: 50.0 mg/kg/injection, schedule: Q01DX005 (ip), vehicle: Klucel (hydroxypropylcellulose) (HPC) 98 % of control and 107 % of control | dose: 100.0 mg/kg/injection, schedule: Q01DX005 (ip), vehicle: Klucel (hydroxypropylcellulose) (HPC) 107 % of control | dose: 200.0 mg/kg/injection, schedule: Q01DX005 (ip), vehicle: Klucel (hydroxypropylcellulose) (HPC) 104 % of control
